According to patent US9913831B2, “Methods and compositions for treating nephrogenic diabetes insipidus” (UNIVERSITY OF UTAH RESEARCH FOUNDATION, priority 2011, dated 2018):

Legend:
[1] = tested on: lithium-treated rats; assay: Effect of clopidogrel on lithium-induced alterations in rats (natriuresis, urinary nitrates/nitrites, hematocrit, body and kidney weight); conditions: 2 weeks
Procedure: (§1) Animal experiments: Male Sprague-Dawley rats were purchased from Charles River (Wilmington, Mass., USA), and Brattleboro mutant rats that lack AVP (HsdBlu:BRAT-Avp^di) were obtained from the Rat Resource & Research Center (RRRC), University of Missouri, Columbia, Mo., USA. Mice (B6D2 genetic background) were bred in-house. […] Lithium-added chow (40 mmol Li/kg chow) was custom prepared (MP Biomedicals, Aurora, Ohio, USA). Clopidogrel bisulfate was administered orally by powdering and dissolving Plavix® tablets (Bristol-Myers Squibb, New York, N.Y., USA) in drinking water. The concentration of the drug in the drinking water was adjusted daily based on the water consumption of the animals the previous day. The clopidogrel dose used in Sprague-Dawley rats (20 mg/kg bw/day) was the same as used by other investigators (de La Crux et al, 2003; Graciano et al, 2008). In mice, clopidogrel was administered at a dose of 80 mg/kg bw/day. When compared with the human clinical dose of Plavix®, and adjusted to the Km factor (ratio of body surface area to body weight) of the species (man vs. rat or mouse) (Reagan-Shaw et al, 2007), the doses used in rats or mice were 2.5- and 5-fold higher, respectively. […] A higher dose of clopidogrel (40 mg/kg bw/day) was used in Brattleboro rats to ensure an unequivocal outcome whether positive or negative. Twenty-four hour urine samples were collected by placing the animals in the appropriate metabolic cages designed for rats and mice. Blood and kidney tissues were collected at necropsy. Cortical, outer and inner medullary regions of the kidneys were dissected out and processed for laboratory assays.
(§2) Blood, urine and tissue analysis: Osmolalities of clear urine samples were measured by vapor pressure method (Wescor, Logan, Utah, USA). Microhematocrit was determined by centrifuging free-flowing blood collected in heparinized capillary tubes in a microhematocrit centrifuge (Clay Adams, Parsippany, N.J., USA). Urinary excretion of AVP was quantified by a commercial ELISA kit (Enzo Life Sciences, Farmingdale, N.Y., USA). Total nitrate/nitrite contents of urine samples were determined by a commercial kit (Cayman Chemical, Ann Arbor, Mich.).Na, Li and K levels in serum and/or urine were determined on EasyElectrolyte® (Medica Corp., Bedford, Mass., USA). Based on serum and urine analysis, electrolyte-free clearance [CH20(e)] was computed using the formula CH20(e)=V((1−UNa+UK)/PNa), where V=urine volume, UNa and UK are urine Na and K, and PNa is plasma Na, respectively (Schrier 2006). Lithium levels in inner medullary tissue homogenates were assayed by Inductively Coupled Plasma-Mass Spectrometry (ICPMS) by Exova (Santa Fe Springs, Calif., USA), and were normalized to their respective protein contents.
Statistical Analysis: All quantitative data are expressed as mean±standard error (SE). Comparisons among the means of multiple groups were made by one-way analysis of variance (ANOVA), followed by the assessment of statistical significance by Tukey-Kramer Multiple Comparison Test or Student-Newman-Keuls Multiple Comparison Test. Differences between the means of two groups were determined by unpaired t test or where applicable, by Mann-Whitney nonparametric test. P values less than 0.05 were considered significant. GraphPad Instat® (GraphPad Software, Inc., La Jolla, Calif.) was used for statistical analysis.

[2] = tested on: lithium-induced polyuria in rats
Procedure: as §1, with “(HsdBlu:BRAT-Avpdi)” for “(HsdBlu:BRAT-Avp^di)”
as §2, with “Microhematocrit” for “Blood, urine and tissue analysis: Osmolalities of clear urine samples were measured by vapor pressure method (Wescor, Logan, Utah, USA). Microhematocrit”, “Total nitrate/nitrite contents of urine samples were determined by a commercial kit (Cayman Chemical, Ann Arbor, Mich.).Na, Li and K levels in serum and/or urine were determined on EasyElectrolyte® (Medica Corp., Bedford, Mass., USA).” left out

[3] = tested on: lithium-induced polyuria in mice (B6D2 genetic background); conditions: lithium diet + clopidogrel 80 mg/kg bw/day 14 days vs LI alone, P<0.05 or better
Procedure: (§3) Animal experiments: Male Sprague-Dawley rats were purchased from Charles River (Wilmington, Mass., USA), and Brattleboro mutant rats that lack AVP (HsdBlu:BRAT-Avpdi) were obtained from the Rat Resource & Research Center (RRRC), University of Missouri, Columbia, Mo., USA. Mice (B6D2 genetic background) were bred in-house. […] Lithium-added chow (40 mmol Li/kg chow) was custom prepared (MP Biomedicals, Aurora, Ohio, USA). Clopidogrel bisulfate was administered orally by powdering and dissolving Plavix® tablets (Bristol-Myers Squibb, New York, N.Y., USA) in drinking water. The concentration of the drug in the drinking water was adjusted daily based on the water consumption of the animals the previous day. The clopidogrel dose used in Sprague-Dawley rats (20 mg/kg bw/day) was the same as used by other investigators (de La Crux et al, 2003; Graciano et al, 2008). In mice, clopidogrel was administered at a dose of 80 mg/kg bw/day. When compared with the human clinical dose of Plavix®, and adjusted to the Km factor (ratio of body surface area to body weight) of the species (man vs. rat or mouse) (Reagan-Shaw et al, 2007), the doses used in rats or mice were 2.5- and 5-fold higher, respectively. […]
The effect of administration of clopidogrel on lithium-induced polyuria was determined in mice (B6D2 genetic background). […]

[4] = tested on: AQP2 protein; conditions: mice, lithium diet + clopidogrel 80 mg/kg bw/day 14 days
Procedure: The effect of administration of clopidogrel on lithium-induced polyuria was determined in mice (B6D2 genetic background). Groups of mice were administered either a lithium-containing diet (40 mmol/kg chow; custom prepared by MP Biomedicals, Aurora, Ohio) or lithium-containing diet plus clopidogrel (80 mg per kg body weight per day in drinking water) for 14 days. Twenty-four urine samples were collected prior to the start of the treatment (day 0), on days 8 and 9, and days 13 and 14. The data plotted in the graphs represent the mean of the values obtained on the two consecutive days. Results are mean±SE; n=5 for LI alone group and n=6 for LI+CLPD group; ANOVA followed by Tukey Kramer Multiple Comparison Test.

[5] = tested on: ADP-activated P2Y12 receptor
[6] = tested on: rats; conditions: upto 4 weeks; cited from earlier work
[7] = rats, lithium diet with clopidogrel vs lithium alone, ICPMS
Procedure: as §2, with “Microhematocrit” for “Blood, urine and tissue analysis: Osmolalities of clear urine samples were measured by vapor pressure method (Wescor, Logan, Utah, USA). Microhematocrit”, “Total nitrate/nitrite contents of urine samples were determined by a commercial kit (Cayman Chemical, Ann Arbor, Mich.).Na, Li and K levels in serum and/or urine were determined on EasyElectrolyte® (Medica Corp., Bedford, Mass., USA).” left out

[8] = tested on: Brattleboro mutant rats; conditions: Brattleboro rats lacking AVP, clopidogrel 40 mg/kg bw/day in drinking water 2 weeks
Procedure: Animal experiments: Male Sprague-Dawley rats were purchased from Charles River (Wilmington, Mass., USA), and Brattleboro mutant rats that lack AVP (HsdBlu:BRAT-Avp^di) were obtained from the Rat Resource & Research Center (RRRC), University of Missouri, Columbia, Mo., USA. Mice (B6D2 genetic background) were bred in-house. […] Lithium-added chow (40 mmol Li/kg chow) was custom prepared (MP Biomedicals, Aurora, Ohio, USA). Clopidogrel bisulfate was administered orally by powdering and dissolving Plavix® tablets (Bristol-Myers Squibb, New York, N.Y., USA) in drinking water. The concentration of the drug in the drinking water was adjusted daily based on the water consumption of the animals the previous day. […]
Blood, urine and tissue analysis: Osmolalities of clear urine samples were measured by vapor pressure method (Wescor, Logan, Utah, USA). Microhematocrit was determined by centrifuging free-flowing blood collected in heparinized capillary tubes in a microhematocrit centrifuge (Clay Adams, Parsippany, N.J., USA). Urinary excretion of AVP was quantified by a commercial ELISA kit (Enzo Life Sciences, Farmingdale, N.Y., USA). Total nitrate/nitrite contents of urine samples were determined by a commercial kit (Cayman Chemical, Ann Arbor, Mich.).Na, Li and K levels in serum and/or urine were determined on EasyElectrolyte® (Medica Corp., Bedford, Mass., USA). […]

[9] = tested on: AQP2 water channel protein; conditions: normal rats, clopidogrel 20 mg/kg bw/day in drinking water 13 days, vs control
Procedure: (§4) Tissue samples were prepared and immnoblotted for semi-quantitative determination of protein abundances of P2Y12 receptor, and β-actin by the methods described previously (Zhang et al, ibid, 2008, 2009, 2010). Whole tissue homogenates were prepared in the presence of protease inhibitors, and the concentrations of proteins in the homogenates were determined, and solubilized in Laemmli buffer. Then the solubilized proteins were size fractionated on 12% SDS-polyacrylamide gels. Quality of tissue sample preparation and equality of protein loading were verified by staining parallel-run loading gels with Coomassie-blue (Gelcode Blue, Pierce Endogen, Rockford, Ill.). The size fractionated proteins were electrotransferred to nitrocellulose membranes, and blocked with buffer containing non-fat milk. Differences in protein loading were corrected by normalizing the band densities of the target proteins to that of β-actin (polyclonal antibody from Biolegend, San Diego, Calif., USA). After washing, the blocked membranes were incubated with rabbit polyclonal antibodies to either P2Y12 receptor (AnaSpec, Fremont, Calif.) or aquaporin-2 (AQP2; Zhang et al, ibid, 2008) or AQP1 (commercial source) or β-actin (Biolegend, San Diego, Calif.). Non-specific binding was prevented by incubation of the membranes with goat serum. Generation and characterization of AQP2 antibody (GN-762) was described previously (Kishore et al, 2000; Zhang et al, 2008). When peptide block was tested, prior to its use on the membranes the P2Y12 receptor antibody was pre-adsorbed by incubation with the blocking peptide as per the instructions of the supplier (AnaSpec, Fremont, Calif.). After washing off the primary antibodies, the nitrocellulose membranes were incubated with a peroxidase-conjugated secondary antibody to rabbit IgG (Dako North America, Carpinteria, Calif.). Chemiluminescence reaction was used to detect sites of antigen-antibody reactions (SuperSignal Substrate; Pierce Endogen, Rockford, Ill.), and captured on an X-ray film. Images were digitized and band densities were quantified by using Un-San-It software (Silk Scientific, Orem, Utah). The band densities of AQP2 were normalized by the band densities of β-actin. Mean values of relative band densities thus obtained for P2Y12 receptor were expressed as percent of the mean values obtained in the control group of animals.
(§5) Clopidogrel bisulfate was given orally to a group of Sprague-Dawley rats (n=4) for 13 days by dissolving powdered Plavix® tablets (75 mg base; Bristol-Myers Squibb/Sanofi, Bridgeport, N.J.) in drinking water, so that the rats consumed at least 20 mg of clopidogrel bisulfate base per kg body weight per day. The concentration of the drug in the drinking water was adjusted daily based on the water consumption of the rats the previous day. Another group of rats (n=4) was given plain water and this group served as controls.

[10] = tested on: AQP1 water channel; conditions: normal rats, clopidogrel 20 mg/kg bw/day 13 days
Procedure: as §4, §5

[11] = tested on: P2Y12 receptor; conditions: normal rats, clopidogrel 20 mg/kg bw/day 13 days
Procedure: as §4, §5

[12] = tested on: Sprague-Dawley rats
Procedure: as §3, with “bw/day.” for “bw/day. When compared with the human clinical dose of Plavix®, and adjusted to the Km factor (ratio of body surface area to body weight) of the species (man vs. rat or mouse) (Reagan-Shaw et al, 2007), the doses used in rats or mice were 2.5- and 5-fold higher, respectively.”
Microhematocrit was determined by centrifuging free-flowing blood collected in heparinized capillary tubes in a microhematocrit centrifuge (Clay Adams, Parsippany, N.J., USA). Urinary excretion of AVP was quantified by a commercial ELISA kit (Enzo Life Sciences, Farmingdale, N.Y., USA). […]

[13] = rats, lithium treatment alone (40 mmol Li/kg chow)
[14] = rats, lithium + clopidogrel (40 mg/kg bw/day per FIG. 11 legend)
[15] = rats, lithium + clopidogrel (40 mg/kg bw/day per FIG. 12 legend)

[Li] [Lithium, lithium]
kidney weight as a percent of body weight ([1]; lithium-treated rats with or without added clopidogrel): did not change | gain in body weight [1, 13]: significantly low | terminal hematocrit [1, 13]: significant elevation

COC(=O)[C@H](c1ccccc1Cl)N1CCc2sccc2C1 [clopidogrel]
solute-free water absorption (negative value) ([2]; clopidogrel administered alone): modestly increased | lithium-induced urinary AVP levels ([2]; co-administration of clopidogrel with lithium): augmented | lithium-induced polyuria ([2]; lithium diet 40 mmol/kg chow + clopidogrel 20 mg/kg/day, 13 days): significantly ameliorated | lithium-induced solute-free water excretion (electrolyte-free water clearance, positive value) ([2]; lithium diet + clopidogrel 20 mg/kg/day, 13 days): effectively reversed | water intake [3]: significant decrease | lithium-induced decrease in AQP2 protein abundance in the renal medulla [4]: significantly prevented | development of AVP-resistant polyuria ([5]; lithium-treated rodents): blocked the development | AVP in the urine (surrogate for plasma AVP levels) ([5]; rodents): increased | aquaporin-2 (AQP2) water channel protein in the kidney ([5]; rodents): increased | urinary concentration ([5]; rodents): significantly increased | doses free from toxicity [6]: ≤ 165 mg/kg bw/day | accumulation of lithium in the inner medulla [7]: no effect | urinary concentrating ability [8]: did not increase | lithium-induced increase in urinary NO3/NO2 (total nitrates/nitrites excretion) [1, 14]: significantly ameliorated | lithium-induced natriuresis (urinary sodium excretion) [1, 14]: modest effect | lithium-induced increase in terminal hematocrit [1, 15]: reversed | low gain in body weight due to lithium-treatment [1, 15]: did not ameliorate | increase of AQP2 protein abundance in the inner medulla ([9]; P<0.002): 1.9 fold | increase of AQP2 protein abundance in the cortex ([9]; P<0.02): 2.7 fold | increase of AQP2 protein abundance in the outer medulla ([9]; P=0.24): not in the outer medulla | protein abundance of AQP1 water channel in the kidney [10]: did not appear to alter | protein abundance of P2Y12 receptor in the kidney [11]: did not appear to alter | urinary excretion of AVP ([12]; clopidogrel administration alone, rats): significantly increased | urinary concentration ([12]; normal rats, clopidogrel 20 mg/kg bw/day in drinking water 13 days): Increased
